According to patent US7622269B2, “Methods of screening tyramine- and octopamine-expressing cells for compounds and compositions having potential insect control activity” (Tyratech, Inc., priority 2004, dated 2009):
Values joined by “and” are separate entries in the source; they are usually repeats but may differ in a detail not shown here. Identical values can stand only once.

How the values were obtained:
Pa oa1 [1] = target: T1, Pa oa1 (Periplaneta americana, UniProt Q7YWB7); assay: Competitive binding against 3H-yohimbine, Pa oa1 membranes; conditions: Ki, about 2 nM 3H-yohimbine
T1 sequence (Q7YWB7 entry or part of it): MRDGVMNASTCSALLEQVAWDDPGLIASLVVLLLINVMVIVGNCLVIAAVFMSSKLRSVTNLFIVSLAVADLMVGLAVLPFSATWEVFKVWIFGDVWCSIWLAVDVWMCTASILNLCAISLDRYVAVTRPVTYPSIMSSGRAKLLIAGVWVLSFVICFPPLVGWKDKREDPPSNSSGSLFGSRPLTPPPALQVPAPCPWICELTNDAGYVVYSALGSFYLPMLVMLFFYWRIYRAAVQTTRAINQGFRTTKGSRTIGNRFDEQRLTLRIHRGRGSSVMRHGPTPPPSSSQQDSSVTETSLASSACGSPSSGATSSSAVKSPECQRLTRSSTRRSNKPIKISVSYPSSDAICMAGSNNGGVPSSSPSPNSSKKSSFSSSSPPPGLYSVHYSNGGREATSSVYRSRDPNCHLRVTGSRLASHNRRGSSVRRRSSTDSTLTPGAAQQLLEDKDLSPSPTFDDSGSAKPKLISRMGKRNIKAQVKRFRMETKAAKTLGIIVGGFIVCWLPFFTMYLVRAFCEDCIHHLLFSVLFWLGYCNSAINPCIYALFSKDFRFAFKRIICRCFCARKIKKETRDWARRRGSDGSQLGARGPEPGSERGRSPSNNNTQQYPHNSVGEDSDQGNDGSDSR

Pa oa1 [2] = target: T1, Pa oa1; assay: cAMP levels in HEK-293 cells expressing Pa oa1; assay type: cell-based
Protocol: (§1) Twenty-four hours before cell treatment, about 300,000 HEK-293 cells are plated in about 1 ml media with about 0.8 mg G418/ml into multi-well dishes (e.g., 12-well, 4.5 cm^2). For cell treatment, the media is aspirated and about 1 ml PBS with about 300 μM IBMX and the test reagent is added. […] Cells are incubated with about 70% ethanol for about 1 h at about −20° C. The cellular debris is centrifuged and then the supernatant is removed and lyophilized to dryness. The amount of cAMP in the extract is determined by using a cAMP binding protein from the ^3H-cAMP Biotrak assay system (Amersham Biosciences) as per the manufacturer's instructions. To test the effects of calcium chelation on cAMP levels, the cells are incubated with about […] BAPTA/AM (Calbiochem Biochemicals, La Jolla, Calif.) for about 10 min before the addition of the test reagents.
(§2) To determine cAMP levels in cells, about 24-hours before cell treatment, 300,000 HEK-293 cells are plated in 1 mL media with 0.8 mg G418/mL into multi-dishes (4.5 cm2). For cell treatment, the media is aspirated and 1 mL PBS with 300 μM IBMX and the test reagent is added. Cells are incubated at 37° C. for 20 min, and the PBS is then aspirated. Cells are incubated with 70% ethanol for 1 hour at −20° C. The cellular debris is centrifuged and then the supernatant is removed and lyophilized to dryness. The amount of cAMP in the extract is determined by using a cAMP binding protein from the ^3H-cAMP Biotrak assay system (Amersham Biosciences, Piscataway, N.J.) as per the manufacturer's instructions.

Pa oa1 [3] = target: T1, Pa oa1; assay: Intracellular calcium (Fura-2) in HEK-293 cells expressing Pa oa1; assay type: cell-based
control HEK-293 cells [4] = assay: cAMP levels in control HEK-293 cells transfected with pCDNA3 without insert; assay type: cell-based, human; conditions: up to about 100 μM
Protocol: as §1
To determine which second messenger signaling pathways octopamine could affect through the Pa oa1 receptor, HEK-293 cells are stably transfected with pCDNA3-Pa oa1 or pCDNA3 without an insert as a control.

control HEK-293 cells [5] = assay: Intracellular calcium in control HEK-293 cells transfected with empty pCDNA3; assay type: cell-based, human; conditions: about 10 μM
OAMB [6] = target: T2, OAMB (Drosophila melanogaster, UniProt Q7JQF1, L268I/L487I/L521I/T180I); assay: biochemical; assay type: binding; set-up: Oligonucleotides designed to amplify the open reading frame of Drosophila melanogaster OAMB; expressed in transfected cells
T2 sequence (Q7JQF1 other isoform, or with tags, fused parts or gaps T180I/L268I/L487I/L524I): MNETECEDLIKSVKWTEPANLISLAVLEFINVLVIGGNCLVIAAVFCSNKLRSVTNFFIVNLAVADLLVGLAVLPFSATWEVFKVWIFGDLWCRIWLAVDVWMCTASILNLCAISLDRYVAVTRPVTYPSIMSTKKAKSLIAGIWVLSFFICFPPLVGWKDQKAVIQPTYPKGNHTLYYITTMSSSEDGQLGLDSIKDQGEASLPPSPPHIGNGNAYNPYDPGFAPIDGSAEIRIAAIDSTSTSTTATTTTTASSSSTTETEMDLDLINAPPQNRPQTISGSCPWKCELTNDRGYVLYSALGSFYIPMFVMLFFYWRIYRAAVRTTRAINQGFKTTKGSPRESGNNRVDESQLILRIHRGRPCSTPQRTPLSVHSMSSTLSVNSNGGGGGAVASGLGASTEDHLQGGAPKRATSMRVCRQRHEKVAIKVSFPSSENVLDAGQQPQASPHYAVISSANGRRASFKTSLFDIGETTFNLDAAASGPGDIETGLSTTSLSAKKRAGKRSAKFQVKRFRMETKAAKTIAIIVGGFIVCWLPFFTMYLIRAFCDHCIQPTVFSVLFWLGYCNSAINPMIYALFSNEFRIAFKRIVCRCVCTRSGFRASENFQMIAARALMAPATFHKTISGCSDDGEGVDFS

Pa oa1 [7] = target: T1, Pa oa1; assay: Specific binding of 3H-yohimbine to Pa oa1 membranes in presence of plant essential oil; conditions: for relative potency as inhibitor of 3H-yohimbine binding, Pa oa1 vs OAMB: 50 μM; for effect on specific binding of 3H-yohimbine: 50 μM test chemical, 4 nM 3H-yohimbine
Protocol: (§3) The binding activity of ^3H-yohimbine to membranes expressing Pa oa1 or OAMB is performed in the presence and absence of three structurally related plant essential oil monoterpenoids, which are selected based on their insecticidal activity, the absence or presence and location of the hydroxyl group and a spacing group within the molecule. Membrane protein (10 μg) expressing Pa oa1 is incubated with 4 nM ^3H-yohimbine in the presence and absence of 50 μM of the test chemical. The specific activity is calculated as the difference between counts in the presence and absence of test chemical. Specific binding is calculated by determining nonspecific binding with 50 μM tested plant essential oils and subtracting nonspecific binding from total binding.

[8] = system: Drosophila melanogaster wild type strain; assay: Topical toxicity bioassay, wild type fruit fly; assay type: in vivo; conditions: for LD50, D. melanogaster / Wild/type LD50 values: topical application; for LD50, D. melanogaster: 24 hours; for Wild/type LD50 values: mortality 24 hours after treatment; for % Mortality at LD50 of wild/type Drosophila melanogaster strain, Wild/type: topical, 24 hour
American cockroach = assay: Topical toxicity bioassay, American cockroach; assay type: in vivo, Periplaneta americana; conditions: for LD50, P. Americana: topical application, 24 hours
Protocol: Acetonic solutions of plant essential oils are prepared and different concentrations of each, that give from 10%-100% mortality, are applied by topical application. Controls are treated with the same volume (0.5 μl/insect) of acetone. Replicates, with 5 insects per replicate, are used for each concentration. The mortality is calculated 24 hours after treatment. Data are subjected to probit analysis to determine LD50 value for each compound.

OAMB [9] = target: T2, OAMB; assay: Intracellular calcium (Fura-2) in HEK-293 cells expressing OAMB; conditions: 25 μM
Protocol: Cells are collected by scraping and are suspended at about 750,000 cells/ml in HBSS with about 5 μM Fura-2 AM (Sigma-Aldrich).

OAMB [10] = target: T2, OAMB; assay: Specific binding of 3H-yohimbine to OAMB membranes in presence of plant essential oil; set-up: Oligonucleotides designed to amplify the open reading frame of Drosophila melanogaster OAMB; expressed in transfected cells; conditions: 50 μM test chemical, 4 nM 3H-yohimbine
Protocol: as §3

OAMB [11] = target: T2, OAMB; assay: cAMP levels in HEK-293 cells expressing OAMB; assay type: cell-based; set-up: Oligonucleotides designed to amplify the open reading frame of Drosophila melanogaster OAMB; expressed in transfected cells; conditions: 50 μM, 300 μM IBMX
Protocol: as §2

**Q.** How did the Ki (Pa oa1 [1]) turn out when `NCCc1c[nH]c2ccc(O)cc12` [Serotonin] was run?
**A.** 77.4 ± 11.6 µM

**Q.** What does the source list for `NCCc1ccc(O)cc1` [Tyramine, tyramine]?
**A.** Ki (Pa oa1 [1]): ~31 µM and 31 µM; EC50 (Pa oa1 [2]; 300 μM IBMX, read-out: EC50 for increase in cAMP): ~97.7 µM; fold induction at 100 µM (Pa oa1 [2]; HEK293, 20 min, about 100 μM amine, read-out: increase in cAMP): ~215; cAMP concentration (Pa oa1 [2]; about 10 nM amine, basal about 0.48 pmol cAMP): about 0.50 pmol cAMP; cAMP (Pa oa1 [2]; about 1 μM amine): about 1.2 pmol; concentration that increases intracellular calcium (Pa oa1 [3]): ≥ 1 µM; effect on intracellular calcium (Pa oa1 [3]; about 100 nM): does not modulate intracellular calcium levels; increase in tyramine concentration compared to about 10 nM octopamine required for similar response (Pa oa1 [3]; calcium and cAMP assays): about 100 fold; effect on cAMP levels (control HEK-293 cells [4]): neither DL-octopamine nor tyramine at concentrations up to about 100 μM has significant effects on cAMP levels; effect on intracellular calcium levels (control HEK-293 cells [5]): Neither about 10 μM octopamine nor about 10 μM tyramine modulates intracellular calcium levels; Ki (OAMB [6]): ~33.8 µM

**Q.** Which results are given for `OCC=Cc1ccccc1` [cinnamic alcohol, 3-phenyl-2-propen-1-ol]?
**A.** relative potency as inhibitor of 3H-yohimbine binding, Pa oa1 vs OAMB (Pa oa1 [7]): more potent against OAMB than Pa oa1; effect on specific binding of 3H-yohimbine (Pa oa1 [7]): decrease the binding of ^3H-yohimbine; effect on basal cAMP level (Pa oa1 [2]; 50 μM, 300 μM IBMX): slight increase in cAMP level; changes in [Ca2+]i level (Pa oa1 [3]; 25 μM): increase [Ca^2+]i through Pa oa1 and OAMB; LD50, D. melanogaster [8]: 1.65 μg/insect; Wild/type LD50 values [8]: 1.65 μg/fly; % Mortality at LD50 of wild/type Drosophila melanogaster strain, Wild/type [8]: 30.0%; LD50, P. Americana (American cockroach): 98 μg/insect; changes in [Ca2+]i level (OAMB [9]): increase [Ca^2+]i through Pa oa1 and OAMB; rank of potency based on increased [Ca2+]i level (OAMB [9]): the most potent agent tested in this example; speed of increase in [Ca2+]i (OAMB [9]): slower than the other two chemicals; effect on specific binding of 3H-yohimbine (OAMB [10]): decrease the binding of ^3H-yohimbine; effect on basal cAMP level (OAMB [11]): slight increase in cAMP level

**Q.** What does the source list for `C=CCc1ccc(O)c(OC)c1` [eugenol, 2-methoxy-4-(2-propenyl)phenol]?
**A.** relative potency as inhibitor of 3H-yohimbine binding, Pa oa1 vs OAMB (Pa oa1 [7]): more potent inhibitors against Pa oa1 than OAMB; effect on specific binding of 3H-yohimbine (Pa oa1 [7]): decrease the binding of ^3H-yohimbine; inhibition at 50 µM (Pa oa1 [2]; HEK293, 20 min, 50 μM, 300 μM IBMX, basal cAMP, read-out: decrease in cAMP level): 24%; changes in [Ca2+]i level (Pa oa1 [3]; 25 μM): increase [Ca^2+]i through Pa oa1 and OAMB; rank of potency based on increased [Ca2+]i level (Pa oa1 [3]; 25 μM): the most potent agent tested in this example; more toxic against wild type flies than trans-anethole ([8]; in vivo): 3 fold; LD50, D. melanogaster [8]: 1.90 μg/insect; Wild/type LD50 values [8]: 1.90 μg/fly; % Mortality at LD50 of wild/type Drosophila melanogaster strain, Wild/type [8]: 53.3%; more toxic against American cockroach than cinnamic alcohol (American cockroach; in vivo): about 2 fold; more toxic against American cockroach than trans-anethole (American cockroach; in vivo): about 27 fold; LD50, P. Americana (American cockroach): 47 μg/insect; changes in [Ca2+]i level (OAMB [9]): increase [Ca^2+]i through Pa oa1 and OAMB; effect on specific binding of 3H-yohimbine (OAMB [10]): decrease the binding of ^3H-yohimbine; effect on basal cAMP level (OAMB [11]): slightly decreased cAMP level

**Q.** Which “Wild/type LD50 values” [8] does the source give for `CC(C)=CCCC(C)=CCO` [geraniol, 3,7-dimethyl-2,6-octadien-1-ol] here?
**A.** 10.50 μg/fly

**Q.** And the “% Mortality at LD50 of wild/type Drosophila melanogaster strain, Wild/type” value (“% Mortality at LD50 … Wild/type” below) [8]?
**A.** 60.0%

**Q.** For `COC(=O)c1ccccc1O` [methyl salicylate, 2-hydroxybenzoic acid methyl ester], which “Wild/type LD50 values” [8] is on record?
**A.** 7.50 μg/fly

**Q.** What about the “% Mortality at LD50 … Wild/type” value [8] of the same molecule?
**A.** 40.0%

**Q.** Which “Wild/type LD50 values” [8] does the source give for `Cc1ccc(C(C)C)cc1` [p-cymene, methyl(1-methylethyl)benzene] here?
**A.** 25.00 μg/fly

**Q.** And the “% Mortality at LD50 … Wild/type” value [8]?
**A.** 40.0%

**Q.** How did the “effect on specific binding of 3H-yohimbine” value (Pa oa1 [7]) turn out when `CC=Cc1ccc(OC)cc1` [trans-anethole, 1-methoxy-4-(1-propenyl)benzene] was run?
**A.** decreases the ^3H-yohimbine binding activity to only Pa oa1

**Q.** What about the “speed of increase in [Ca2+]i” value (Pa oa1 [3]; 25 μM) of the same molecule?
**A.** slower than eugenol and cinnamic alcohol

**Q.** What about the “changes in [Ca2+]i level” value (OAMB [9]) of the same molecule?
**A.** increases

**Q.** And the “effect on specific binding of 3H-yohimbine” value (OAMB [10])?
**A.** does not have a significant effect on binding to OAMB

**Q.** And the “increase in cAMP level” value (OAMB [11]; basal cAMP)?
**A.** 22%
